The source of these data is patent US8680012B2, “4-phenyl-pyrane-3,5-diones,4-phenyl-thiopyrane-3,6-diones and cyclohexanetriones as novel herbicides” (Syngenta Crop Protection LLC, priority 2006, dated 2014).

Holding throughout (assay type): in vivo
Assay [1] concerns Echinochloa crus-galli (ECHCG). Briefly: Example B pre-emergence herbicidal activity, glasshouse pot test. The following applies: 312 h, evaluated after 13 days, read-out: Pre-emergence activity ECHCG (100=total damage to plant; 0=no damage to plant); for pest or weed control at 1000 g/ha: rate 1000 g/ha. The method, boiled down:
(§1)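 Visual injury score (0 none to 100 total plant damage) recorded 13 days after spraying. Plants received an aqueous spray of compound in 50:50 acetone/water with 0.5% Tween 20, either one day after sowing or after eight days of cultivation, in pots kept under controlled glasshouse conditions.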

Assay [2] has as its system Amaranthus retroflexus (AMARE). The assay is described as above. Particulars: 312 h, evaluated after 13 days, read-out: Pre-emergence activity AMARE (100=total damage to plant; 0=no damage to plant); for pest or weed control at 1000 g/ha: rate 1000 g/ha. The method, boiled down:
as §1

For assay [3], the system named is Avena fatua (AVEFA). Described as above. Particulars: 312 h, evaluated after 13 days, read-out: Pre-emergence activity AVEFA (100=total damage to plant; 0=no damage to plant); for pest or weed control at 1000 g/ha: rate 1000 g/ha. The method, boiled down: as §1
Assay [4] deals with Setaria faberi (SETFA). The assay is described as above. Particulars: 312 h, evaluated after 13 days, read-out: Pre-emergence activity SETFA (100=total damage to plant; 0=no damage to plant); for pest or weed control at 1000 g/ha: rate 1000 g/ha. Summed up: as §1
Assay [5] relates to Solanum nigrum (SOLNI). The description is as above. The following applies: 312 h, evaluated after 13 days, read-out: Pre-emergence activity SOLNI (100=total damage to plant; 0=no damage to plant); for pest or weed control at 1000 g/ha: rate 1000 g/ha. The method, boiled down:
as §1

In assay [6] the test system is Alopecurus myosuroides (ALOMY). The description is as above. The following applies: 312 h, evaluated after 13 days, read-out: Pre-emergence activity ALOMY (100=total damage to plant; 0=no damage to plant); for pest or weed control at 1000 g/ha: rate 1000 g/ha. Summed up: as §1
Assay [7] deals with Echinochloa crus-galli (ECHCG). As to the kind of experiment: Example B post-emergence herbicidal activity, glasshouse pot test. Particulars: 312 h, evaluated after 13 days, read-out: Post-emergence activity ECHCG (100=total damage to plant; 0=no damage to plant); for pest or weed control at 1000 g/ha: rate 1000 g/ha. Summed up: as §1
The subject of assay [8] is Amaranthus retroflexus (AMARE). The description is as above. Particulars: 312 h, evaluated after 13 days, read-out: Post-emergence activity AMARE (100=total damage to plant; 0=no damage to plant); for pest or weed control at 1000 g/ha: rate 1000 g/ha. Summed up: as §1
Assay [9] has as its system Avena fatua (AVEFA). The description is as above. The following applies: 312 h, evaluated after 13 days, read-out: Post-emergence activity AVEFA (100=total damage to plant; 0=no damage to plant); for pest or weed control at 1000 g/ha: rate 1000 g/ha. The method, boiled down: as §1
Assay [10] deals with Setaria faberi (SETFA). Described as above. The following applies: 312 h, evaluated after 13 days, read-out: Post-emergence activity SETFA (100=total damage to plant; 0=no damage to plant); for pest or weed control at 1000 g/ha: rate 1000 g/ha. Summed up: as §1
In assay [11] the test system is Solanum nigrum (SOLNI). The assay is described as above. The following applies: 312 h, evaluated after 13 days, read-out: Post-emergence activity SOLNI (100=total damage to plant; 0=no damage to plant); for pest or weed control at 1000 g/ha: rate 1000 g/ha. The method, boiled down: as §1
The test system of assay [12] is Alopecurus myosuroides (ALOMY). The assay is described as above. Particulars: 312 h, evaluated after 13 days, read-out: Post-emergence activity ALOMY (100=total damage to plant; 0=no damage to plant); for pest or weed control at 1000 g/ha: rate 1000 g/ha. Summed up: as §1

On to `Cc1ccc(-c2ccc(F)cc2F)cc1C1=C(O)C(C)(C)OC(C)(C)C1=O` [Compound A-27], for which the pest or weed control at 1000 g/ha was 100% in [1]; 10% in assay [2]; 60% in [3]; 90% in assay [4]; 20% in assay [5]; 80% in [6]. In addition, the pest or weed control at 1000 g/ha in assay [7] was determined as 100%; in assay [8] it was 100%; in [9], 80%; in [10] it was 100%; in assay [11] it was 50%; in [12], 80%.
Turning to `Cc1ccc(-c2cccc(C(F)(F)F)c2)cc1C1=C(O)C(C)(C)OC(C)(C)C1=O` [Compound A-15], the pest or weed control at 1000 g/ha in assay [1] is 100%; in [2], 100%; in assay [3], 50%; in assay [4] it was 50%; in assay [5] it was 100%; in assay [6], 50%. Moreover, the pest or weed control at 1000 g/ha in assay [7] came to 50%; in [8], 90%; in [9], 20%; in assay [10] it was 10%; in assay [11] it was 10%; in [12], 10%.
Take `CCc1ccc(-c2ccc(Cl)cc2)cc1C1=C(O)[C@@]2(C)CC[C@H](O2)C1=O` (single isomer, unassigned) [Compound A-29]: the pest or weed control at 1000 g/ha came out at 100% in [1]; 0% in assay [2]; 80% in assay [3]; 100% in [4]; 0% in assay [5]; 90% in assay [6]. In addition, the pest or weed control at 1000 g/ha in [7] was 100%; in [8], 40%; in assay [9], 100%; in [10], 100%; in assay [11], 60%; in assay [12] it was 100%.
With `Cc1ccc(-c2ccc(Cl)cc2)cc1C1=C(O)C2(CCOCC2)OCC1=O` (single isomer, unassigned) [Compound A-37], the pest or weed control at 1000 g/ha in assay [1] amounted to 30%; in [2], 0%; in [3], 20%; in assay [4], 20%; in [5], 0%; in assay [6], 40%. Moreover, the pest or weed control at 1000 g/ha amounted to 90% in assay [7]; 0% in [8]; 30% in assay [9]; 80% in [10]; 70% in [11]; 70% in assay [12].
Turning to `CCc1ccc(-c2ccc(Cl)cc2)cc1C1=C(OC(=O)OC(C)C)C(C)(C)OC(C)(C)C1=O` [Compound D-17], the pest or weed control at 1000 g/ha in assay [1] was 80%; in assay [2], 0%; in [3], 0%; in assay [4] it was 90%; in assay [5] it was 0%; in [6], 20%. Moreover, the pest or weed control at 1000 g/ha in assay [7] came out at 100%; in assay [8], 10%; in assay [9] it was 20%; in [10], 100%; in assay [11] it was 0%; in assay [12], 60%.
In the case of `CCOC(=O)OC1=C(c2cc(-c3ccc(Cl)cc3)ccc2CC)C(=O)C(C)(C)OC1(C)C` [Compound D-13], the pest or weed control at 1000 g/ha stood at 90% in [1]; 0% in assay [2]; 20% in assay [3]; 90% in assay [4]; 0% in assay [5]; 50% in assay [6]. The pest or weed control at 1000 g/ha in assay [7] was determined as 100%; in assay [8], 0%; in [9], 0%; in assay [10] it was 100%; in assay [11], 0%; in [12] it was 60%.
Consider `CCc1ccc(-c2ccc(Cl)cc2)cc1C1=C(OC(=O)C(C)C)C(C)(C)OC(C)(C)C1=O` [Compound D-9], for which the pest or weed control at 1000 g/ha came to 70% in assay [1]; 0% in assay [2]; 0% in assay [3]; 90% in assay [4]; 0% in assay [5]; 20% in [6]. Also, the pest or weed control at 1000 g/ha in [7] worked out at 100%; in [8] it was 0%; in [9], 0%; in [10] it was 90%; in assay [11] it was 0%; in [12] it was 30%.
On to `Cc1ccc(-c2ccc(Cl)cc2)cc1C1=C(O)C(C)(C)C(=O)C(C)(C)C1=O` [Compound B-4], for which the pest or weed control at 1000 g/ha in [1] was determined as 30%; in assay [2], 0%; in assay [3] it was 0%; in assay [4], 0%; in assay [5], 0%; in [6], 0%. The pest or weed control at 1000 g/ha in [7] was determined as 90%; in assay [8], 70%; in assay [9], 30%; in assay [10], 90%; in assay [11] it was 40%; in [12], 80%.
As for `CCc1ccc(-c2ccc(Cl)c(F)c2)cc1C1=C(O)C(C)(C)C(=O)C(C)(C)C1=O` [Compound B-12], the pest or weed control at 250 g/ha in [1] (rate 250 g/ha) came to 30%; in assay [2] (rate 250 g/ha) it was 0%; in assay [3] (rate 250 g/ha) it was 0%; in [4] (rate 250 g/ha) it was 50%; in assay [5] (rate 250 g/ha), 0%; in [6] (rate 250 g/ha), 0%. The pest or weed control at 250 g/ha stood at 100% in assay [7] (rate 250 g/ha); 30% in [8] (rate 250 g/ha); 0% in [9] (rate 250 g/ha); 90% in [10] (rate 250 g/ha); 0% in assay [11] (rate 250 g/ha); 60% in [12] (rate 250 g/ha).
